# Laboratory results taken from paper PMC8327158, “PEGylated AdipoRon derivatives improve glucose and lipid metabolism under insulinopenic and high-fat diet conditions” (Journal of Lipid Research, 2021).
# System: HFD-fed wild-type mice
# Test: Sphingolipid levels in tissues and serum of HFD-fed mice by mass spectrometry
# Format: in vivo, mouse
# Details: for Cer 14:0 / Cer 16:0 / Cer 18:0 / Cer 18:1 / Cer 20:0 / Cer 22:0 / Cer 24:0 / Cer 24:1 / Cer 26:0 / Cer 26:1 / DeoxySphinganie / Deoxysphingosine / Hexosyl 14:0 / Hexosyl 16:0 / Hexosyl 18:0 / Hexosyl 20:0 / Hexosyl 22:0 / Hexosyl 24:0 / Hexosyl 24:1 / Lactosyl 16:0 / Lactosyl 18:0 / Lactosyl 22:0 / Lactosyl 24:1 / Lactosyl C24:0 / Sphingaine1P / Sphinganine / Sphingosine / Sphingosine1P / dCer 16:0 / dCer 18:0 / dCer 20:0 / dCer 22:0 / dCer 24:0 / dCer 24:1: 5 mg/kg twice a day 5 days, average ± SD
# Description: Six-week-old wild-type male mice were fed HFD for 4 weeks or 7 months In total, 5 mg/Kg of PBS, Adiporon, AdipoRonPEG5, AdipoRonPEG6HTL were injected twice a day for 5 days. After 5 days of treatment, systemic test is performed, and serum (Before and after treatment), subcutaneous, epididymal, liver, heart samples were harvested for qPCR and sphingolipid analysis.
# Flash-frozen tissue samples (~40 mg) in a borosilicate glass tube were quenched with 2.0 ml of organic extraction solvent (isopropanol: ethyl acetate, 15:85; v:v) and homogenized with a mechanical tissue disruptor. Immediately afterward, 20 μl of organic internal standard solution was added (Ceramide/Sphingoid Internal Standard Mixture II diluted 1:10 in ethanol). The mixture was vortexed for 20 s and sonicated in ultrasonic bath for 40 min at 40°C. The organic extract was allowed to reach room temperature, and 1.5 ml of HPLC water was added and a two-phase liquid-liquid extraction was performed. The upper phase was transferred to a new clean tube, and the lower aqueous phase containing the protein pellet was re-extracted with additional 2.0 ml of organic extraction solvent. The organic phases were combined and dried under nitrogen stream at 40°C. Dried extracts were stored at –80°C until analysis. For analysis of ceramides and sphingoid base species, the dried residues were reconstituted in 200 μl of methanol. Sphingomyelins required a sample dilution of 1:50 in methanol prior to analysis. Serum sphingolipids were extracted using a similar methodology requiring 25 μl of serum.
# Liver, subcutaneous adipose tissue, pancreas, pancreatic islets were initially homogenized in 500 μl of cold PBS using an ultrasonic probe disruptor and keeping the sample on ice during sonication. In total, 50 μl of aqueous homogenate was aliquoted for protein determination. In total, 400 μl of the lysate was immediately quenched in 2.0 ml of organic extraction solvent.
# In total, 5 μl of reconstituted samples was injected into an LC/MS/MS system for the analysis of ceramides and sphingoid bases, and 1 μl injection was required for the analysis of sphingomyelins. The system consisted of a Shimadzu LCMS-8050 triple-quadrupole mass spectrometer with the dual ion source operating in electrospray positive ionization mode. The mass spectrometer is coupled to a Shimadzu Nexera X2 UHPLC system equipped with three solvent delivery modules LC-30AD, three degassing units DGU-20A5R, an autosampler SIL-30ACMP, and a column oven CTO-20AC operating at 40°C (Shimadzu Scientific Instruments, Columbia, MD). Six sphingoid bases (d18:1 sphingosine, d18:1 sphingosine-1-phosphate, d18:1 deoxysphingosine, d18:0 sphinganine, d18:0 sphinganine-1-phosphate, d18:0 deoxysphinganine) and […] ceramide species and their metabolites (C16:0, C16:0 dihydroceramide, C16:0 glucosylceramide, C16:0 lactosylceramide, C16:0 sphingomyelin, C18:0, C18:0 dihydroceramide, C18:0 glucosylceramide, C18:0 sphingomyelin, C18:1, C20:0, C22:0, C22:0 glucosylceramide, C24:0, C24:0 dihydroceramide, C24:0 lactosylceramide, C24:0 sphingomyelin, C24:1, C24:1 dihydroceramide, C24:1 glucosylceramide, C24:1 sphingomyelin). Quantitative analysis of sphingolipids was achieved using selective reaction monitoring scan mode. Lipid separation was achieved by reverse phase LC on a 2.1 (i.d.) × 150 mm Ascentis Express C8, 2.7 micron (Supelco, Bellefonte, PA) column under gradient elution, using three different mobile phases: eluent A consisting of methanol/water/formic acid, 600/400/0.8, v/v/v with 5 mM ammonium formate, eluent B consisting of methanol/formic acid, 1,000/0.8, v/v with 5 mM ammonium formate, and eluent C consisting of CH3OH/CH2Cl2 350/650. The concentration of each metabolite was determined according to calibration curves using the peak-area ratio of analyte versus corresponding internal standard. Calibration curves were generated using serial dilutions of each target analyte.
compound,measurement,setting,value
O=C(COc1ccc(C(=O)c2ccccc2)cc1)NC1CCN(Cc2ccc(OCCOCCOCCOCCOCCO)cc2)CC1 [AdipoRonPEG5],pancreas S1P level,5 mg/kg,trend of elevating S1P
same,pancreas dihydroceramide levels,5 mg/kg,minimal impact
same,scWAT ceramide levels,5 mg/kg,neither AdipoRon nor AdipoRonPEG5 had a noticeable impact
same,pancreas C24:0 and C24:1 ceramides,"5 mg/kg, vs saline controls or AdipoRon",significant reduction
same,hepatic dihydroceramides,IP 5 mg/kg,drastically reduced
same,"serum dihydroceramides dC16:0, dC18:0, dC22:0, dC24:0",IP 5 mg/kg,drastically lowered
same,sphingoid bases including S1P in the liver,IP 5 mg/kg,overall increase
same,Cer 14:0,liver,10700.6 ± 4986.87 pg/mg
same,Cer 16:0,liver,10811.2 ± 3038.11 pg/mg
same,Cer 18:0,liver,41588.7 ± 18827.94 pg/mg
same,Cer 18:1,liver,0 pg/mg
same,Cer 20:0,liver,1285175.8 ± 314117.31 pg/mg
same,Cer 22:0,liver,17214621.7 ± 3730792.66 pg/mg
same,Cer 24:0,liver,13003125.0 ± 3100177.0 pg/mg
same,Cer 24:1,liver,11982004.5 ± 3750645.21 pg/mg
same,Cer 26:0,liver,114936.8 ± 43584.75 pg/mg
same,Cer 26:1,liver,108478.1 ± 38829.61 pg/mg
same,DeoxySphinganie,liver,17056.5 ± 5841.85 pg/mg
same,Deoxysphingosine,liver,674.4 ± 179.33 pg/mg
same,Hexosyl 14:0,liver,9405.4 ± 4098.51 pg/mg
same,Hexosyl 16:0,liver,2563091.7 ± 636477.68 pg/mg
same,Hexosyl 18:0,liver,8702.7 ± 4241.12 pg/mg
same,Hexosyl 20:0,liver,91341.0 ± 29325.4 pg/mg
same,Hexosyl 22:0,liver,18299628.4 ± 6151493.38 pg/mg
same,Hexosyl 24:0,liver,9345685.4 ± 2422218.78 pg/mg
same,Hexosyl 24:1,liver,8806042.3 ± 2575774.26 pg/mg
same,Lactosyl 16:0,liver,857779.3 ± 221964.15 pg/mg
same,Lactosyl 18:0,liver,0.0 ± 0.0 pg/mg
same,Lactosyl 22:0,liver,403630.8 ± 109007.39 pg/mg
same,Lactosyl 24:1,liver,403865.6 ± 85387.31 pg/mg
same,Lactosyl C24:0,liver,284732.8 ± 96368.82 pg/mg
same,Sphingaine1P,liver,124644.1 ± 37940.82 pg/mg
same,Sphinganine,liver,567456.6 ± 215845.28 pg/mg
same,Sphingosine,liver,1814140 ± 638775.97 pg/mg
same,Sphingosine1P,liver,423169.5 ± 201268.1 pg/mg
same,dCer 16:0,liver,7004.1 ± 1704.17 pg/mg
same,dCer 18:0,liver,30523.3 ± 10512.82 pg/mg
same,dCer 20:0,liver,17088.9 ± 5527.47 pg/mg
same,dCer 22:0,liver,85360 ± 20574 pg/mg
same,dCer 24:0,liver,355838.6 ± 67813.11 pg/mg
same,dCer 24:1,liver,64056.2 ± 12063.67 pg/mg
same,Cer 14:0,pancreas,20.8 ± 6.06 pg/mg
same,Cer 16:0,pancreas,28.6 ± 10.14 pg/mg
same,Cer 18:0,pancreas,31.4 ± 12.12 pg/mg
same,Cer 18:1,pancreas,0 pg/mg
same,Cer 20:0,pancreas,1410.3 ± 372.3 pg/mg
same,Cer 22:0,pancreas,5266.0 ± 1349.3 pg/mg
same,Cer 24:0,pancreas,16049.4 ± 4089.83 pg/mg
same,Cer 24:1,pancreas,7744.9 ± 1489.17 pg/mg
same,Cer 26:0,pancreas,162.6 ± 42.67 pg/mg
same,Cer 26:1,pancreas,88.6 ± 17.21 pg/mg
same,DeoxySphinganie,pancreas,2.4 ± 0.49 pg/mg
same,Deoxysphingosine,pancreas,0.0 ± 0.0 pg/mg
same,Hexosyl 14:0,pancreas,4.2 ± 0.35 pg/mg
same,Hexosyl 16:0,pancreas,2792.5 ± 371.94 pg/mg
same,Hexosyl 18:0,pancreas,8.8 ± 4.08 pg/mg
same,Hexosyl 20:0,pancreas,111.6 ± 39.83 pg/mg
same,Hexosyl 22:0,pancreas,5728.8 ± 1888.49 pg/mg
same,Hexosyl 24:0,pancreas,3233.9 ± 524.83 pg/mg
same,Hexosyl 24:1,pancreas,1360.1 ± 170.0 pg/mg
same,Lactosyl 16:0,pancreas,1043.4 ± 60.99 pg/mg
same,Lactosyl 18:0,pancreas,61.7 ± 15.72 pg/mg
same,Lactosyl 22:0,pancreas,258.7 ± 89.43 pg/mg
same,Lactosyl 24:1,pancreas,337.2 ± 90.18 pg/mg
same,Lactosyl C24:0,pancreas,2121.1 ± 714.63 pg/mg
same,Sphingaine1P,pancreas,25.6 ± 5.99 pg/mg
same,Sphinganine,pancreas,34.5 ± 9.74 pg/mg
same,Sphingosine,pancreas,219.2 ± 31.51 pg/mg
same,Sphingosine1P,pancreas,113.2 ± 32.02 pg/mg
same,dCer 16:0,pancreas,5.7 ± 3.12 pg/mg
same,dCer 18:0,pancreas,0.0 ± 0.0 pg/mg
same,dCer 20:0,pancreas,1.9 ± 0.7 pg/mg
same,dCer 22:0,pancreas,54.2 ± 43.08 pg/mg
same,dCer 24:0,pancreas,302.0 ± 155.43 pg/mg
same,dCer 24:1,pancreas,47.3 ± 31.67 pg/mg
same,Cer 14:0,scWAT,32099.4 ± 10520.94 pg/mg
same,Cer 16:0,scWAT,191093.1 ± 51596.09 pg/mg
same,Cer 18:0,scWAT,82819.6 ± 17887.79 pg/mg
same,Cer 18:1,scWAT,21443 ± 6799 pg/mg
same,Cer 20:0,scWAT,147177.5 ± 8589.73 pg/mg
same,Cer 22:0,scWAT,712843.5 ± 129405.16 pg/mg
same,Cer 24:0,scWAT,2685762.3 ± 976754.88 pg/mg
same,Cer 24:1,scWAT,3013765.2 ± 650894.91 pg/mg
same,Cer 26:0,scWAT,24885.1 ± 6744.06 pg/mg
same,Cer 26:1,scWAT,30570.9 ± 6986.86 pg/mg
same,DeoxySphinganie,scWAT,1329.3 ± 1128.06 pg/mg
same,Deoxysphingosine,scWAT,0.0 ± 0.0 pg/mg
same,Hexosyl 14:0,scWAT,5193.4 ± 2870.39 pg/mg
